From ChEMBL document CHEMBL1255477, “In vitro properties of BAL30072, a novel siderophore sulfactam with activity against multiresistant gram-negative bacilli” (Antimicrob Agents Chemother, 2010)
Active and inactive are the calls of the source.

Key:
Klebsiella aerogenes = assay: Antimicrobial activity against Enterobacter aerogenes by broth dilution method; format: functional
Citrobacter freundii = assay: Antimicrobial activity against Citrobacter freundii by broth dilution method; format: functional
Providencia stuartii = assay: Antimicrobial activity against Providencia stuartii by broth dilution method; format: functional
Proteus vulgaris = assay: Antimicrobial activity against Proteus vulgaris by broth dilution method; format: functional
Providencia rettgeri [1] = assay: Antimicrobial activity against Providencia rettgeri by broth dilution method; format: functional
Enterobacter cloacae [2] = assay: Antimicrobial activity against Enterobacter cloacae by broth dilution method; format: functional
Escherichia coli [3] = assay: Antimicrobial activity against Escherichia coli by broth dilution method; format: functional
Klebsiella oxytoca [4] = assay: Antimicrobial activity against Klebsiella oxytoca by broth dilution method; format: functional
Klebsiella pneumoniae [5] = assay: Antimicrobial activity against Klebsiella pneumoniae by broth dilution method; format: functional
Proteus penneri = assay: Antimicrobial activity against Proteus penneri by broth dilution method; format: functional
Proteus mirabilis = assay: Antimicrobial activity against Proteus mirabilis by broth dilution method; format: functional
Serratia marcescens [6] = assay: Antimicrobial activity against Serratia marcescens by broth dilution method; format: functional
Acinetobacter sp. = assay: Antimicrobial activity against Acinetobacter sp. by broth dilution method; format: functional
Burkholderia sp. = assay: Antimicrobial activity against Burkholderia sp. by broth dilution method; format: functional
[7] = system: Stenotrophomonas maltophilia; assay: Antimicrobial activity against Stenotrophomonas maltophilia by broth dilution method; format: functional
Pseudomonas aeruginosa [8] = assay: Antimicrobial activity against Pseudomonas aeruginosa by broth dilution method; format: functional
Pseudomonas aeruginosa [9] = assay: Antimicrobial activity against Pseudomonas aeruginosa B4 by broth dilution method; format: functional
Pseudomonas aeruginosa [10] = assay: Antimicrobial activity against oprD protein deficient Pseudomonas aeruginosa C2 by broth dilution method; format: functional
Pseudomonas aeruginosa [11] = assay: Antimicrobial activity against mexAB-oprM protein and mexCD-oprJ deficient Pseudomonas aeruginosa PAO238 by broth dilution method; format: functional
Pseudomonas aeruginosa [12] = assay: Antimicrobial activity against mexAB-oprM protein and mexCD-oprJ deficient Pseudomonas aeruginosa PAO253 overexpressing MexEF-OprN gene by broth dilution method; format: functional
Pseudomonas aeruginosa [13] = assay: Antimicrobial activity against mexAB-oprM protein and mexZ deficient Pseudomonas aeruginosa PAO267 by broth dilution method; format: functional
Pseudomonas aeruginosa [14] = assay: Antimicrobial activity against mexAB-oprM, mexCD-oprJ, mexEF-oprN, mexJK, mexXY, opmH and pscC gene deficient Pseudomonas aeruginosa PAO750 by broth dilution method; format: functional
Pseudomonas aeruginosa [15] = assay: Antimicrobial activity against Pseudomonas aeruginosa BA(C2-107) selected after 25 ug/ml of compound exposure by broth dilution method; format: functional
Pseudomonas aeruginosa [16] = assay: Antimicrobial activity against Pseudomonas aeruginosa BA(C1-106) selected after 25 ug/ml of compound exposure by broth dilution method; format: functional
Pseudomonas aeruginosa [17] = assay: Antimicrobial activity against Pseudomonas aeruginosa BA by broth dilution method; format: functional; settings: Pseudomonas aeruginosa, BA; read-out: MIC
Pseudomonas aeruginosa [18] = assay: microbe, parasite or virus in culture; settings: PAO1
Description: Antimicrobial activity against Pseudomonas aeruginosa PAO1 by broth dilution method

Acinetobacter baumannii [19] = assay: Antimicrobial activity against Acinetobacter baumannii HPA74510 assessed as number of passages required for MIC to rise above 4 times original MIC; format: functional
Acinetobacter junii = assay: Antimicrobial activity against Acinetobacter junii 15218 assessed as number of passages required for MIC to rise above 4 times original MIC; format: functional
Klebsiella pneumoniae [20] = assay: Antimicrobial activity against Klebsiella pneumoniae 1338665 assessed as number of passages required for MIC to rise above 4 times original MIC; format: functional
Pseudomonas aeruginosa [21] = assay: Antimicrobial activity against Pseudomonas aeruginosa BA assessed as number of passages required for MIC to rise above 4 times original MIC; format: functional
Pseudomonas aeruginosa [22] = assay: Antimicrobial activity against Pseudomonas aeruginosa 527 assessed as number of passages required for MIC to rise above 4 times original MIC; format: functional
[23] = system: Stenotrophomonas maltophilia; assay: Antimicrobial activity against Stenotrophomonas maltophilia 1AC736 assessed as number of passages required for MIC to rise above 4 times original MIC; format: functional
Escherichia coli [24] = assay: Antimicrobial activity against Escherichia coli HB101 harboring beta-lactamase TEM-5 by broth dilution method; format: functional
Escherichia coli [25] = assay: Antimicrobial activity against Escherichia coli K802N harboring beta-lactamase TEM-3 by broth dilution method; format: functional
Escherichia coli [26] = assay: Antimicrobial activity against Escherichia coli CF102 harboring beta-lactamase TEM-3 by broth dilution method; format: functional
Klebsiella pneumoniae [27] = assay: Antimicrobial activity against Klebsiella pneumoniae 1357E harboring beta-lactamase TEM-10 by broth dilution method; format: functional
Escherichia coli [28] = assay: Antimicrobial activity against Escherichia coli A harboring beta-lactamase CTX-M 15 by broth dilution method; format: functional
Klebsiella pneumoniae [29] = assay: Antimicrobial activity against Klebsiella pneumoniae 26768WU harboring beta-lactamase SHV-5 by broth dilution method; format: functional
Klebsiella oxytoca [30] = assay: Antimicrobial activity against Klebsiella oxytoca 1028E harboring beta-lactamase K1 by broth dilution method; format: functional
Pseudomonas aeruginosa [31] = assay: Antimicrobial activity against Pseudomonas aeruginosa 1973E harboring beta-lactamase PSE-1 and class C enzymes by broth dilution method; format: functional
Pseudomonas aeruginosa [32] = assay: Antimicrobial activity against Pseudomonas aeruginosa 1937E harboring beta-lactamase PSE-4 and class C enzymes by broth dilution method; format: functional
Serratia marcescens [33] = assay: Antimicrobial activity against Serratia marcescens S6 harboring beta-lactamase SME-1.AmpC by broth dilution method; format: functional
Escherichia coli [34] = assay: Antimicrobial activity against Escherichia coli nmcA harboring beta-lactamase NMCA by broth dilution method; format: functional
Klebsiella pneumoniae [35] = assay: Antimicrobial activity against Klebsiella pneumoniae CRE harboring beta-lactamase KPC-2 by broth dilution method; format: functional
Klebsiella pneumoniae [36] = assay: Antimicrobial activity against Klebsiella pneumoniae YC harboring beta-lactamase KPC-2,TEM-1and SHV-2 by broth dilution method; format: functional
Acinetobacter baumannii [37] = assay: Antimicrobial activity against Acinetobacter baumannii HPA74510 harboring beta-lactamase IMP-4 by broth dilution method; format: functional
Pseudomonas aeruginosa [38] = assay: Antimicrobial activity against Pseudomonas aeruginosa HPA101-1477 harboring beta-lactamase IMP-1 by broth dilution method; format: functional
Pseudomonas aeruginosa [39] = assay: Antimicrobial activity against Pseudomonas aeruginosa HPA10586 harboring beta-lactamase VIM-1 by broth dilution method; format: functional
Pseudomonas aeruginosa [40] = assay: Antimicrobial activity against Pseudomonas aeruginosa HPA996 harboring beta-lactamase VIM-2 by broth dilution method; format: functional
Providencia rettgeri [41] = assay: Antimicrobial activity against Providencia rettgeri J96 harboring beta-lactamase IMP-1 by broth dilution method; format: functional
[42] = system: Stenotrophomonas maltophilia; assay: Antimicrobial activity against Stenotrophomonas maltophilia B715 harboring beta-lactamase L1and L2 by broth dilution method; format: functional
Enterobacter cloacae [43] = assay: Antimicrobial activity against Enterobacter cloacae 908R harboring beta-lactamase AmpC by broth dilution method; format: functional
Escherichia coli [44] = assay: Antimicrobial activity against Escherichia coli Libyien harboring beta-lactamase CMY-2 by broth dilution method; format: functional
Acinetobacter baumannii [45] = assay: Antimicrobial activity against Acinetobacter baumannii HPA 4737 harboring beta-lactamase OXA-26 by broth dilution method; format: functional
Acinetobacter baumannii [46] = assay: Antimicrobial activity against Acinetobacter baumannii HPA I-16 harboring beta-lactamase OXA-27 by broth dilution method; format: functional
Enterobacter cloacae [47] = assay: Antimicrobial activity against Enterobacter cloacae S4741B assessed as number of passages required for MIC to rise above 4 times original MIC; format: functional
Enterobacter cloacae [48] = assay: Antimicrobial activity against Enterobacter cloacae S9369 assessed as number of passages required for MIC to rise above 4 times original MIC; format: functional
Pseudomonas aeruginosa [49] = assay: Antimicrobial activity against Pseudomonas aeruginosa 621 assessed as number of passages required for MIC to rise above 4 times original MIC; format: functional
Serratia marcescens [50] = assay: Antimicrobial activity against Serratia marcescens 1T9 harboring beta-lactamase Class C by broth dilution method; format: functional
Acinetobacter baumannii [51] = assay: Antimicrobial activity against Acinetobacter baumannii HPA 327009 harboring beta-lactamase OXA-25 by broth dilution method; format: functional
Pseudomonas aeruginosa [52] = assay: microbe, parasite or virus in culture; settings: BA
Description: Antimicrobial activity against Pseudomonas aeruginosa BA harboring beta-lactamase Class C by broth dilution method

Pseudomonas aeruginosa [53] = assay: microbe, parasite or virus in culture; settings: 18S/H
Description: Antimicrobial activity against Pseudomonas aeruginosa 18S/H harboring beta-lactamase Class C by broth dilution method

CC(C)(O/N=C(\C(=O)N[C@@H]1C(=O)N2C(C(=O)[O-])=C(C[n+]3ccccc3)CS[C@H]12)c1csc(N)n1)C(=O)O [CEFTAZIDIME]
> 32 µg/mL: MIC50 (Klebsiella aerogenes) | MIC90 (Klebsiella aerogenes) | MIC (Citrobacter freundii) | MIC50 (Citrobacter freundii) | MIC90 (Citrobacter freundii) | MIC90 (Providencia stuartii) | MIC90 (Providencia rettgeri [1]) | MIC90 (Enterobacter cloacae [2]) | MIC90 (Escherichia coli [3]) | MIC50 (Klebsiella pneumoniae [5]) | MIC90 (Klebsiella pneumoniae [5]) | MIC90 (Acinetobacter sp.) | MIC90 (Pseudomonas aeruginosa [8])
0.25 µg/mL: MIC90 (Proteus vulgaris) | MIC90 (Proteus penneri) | MIC90 (Proteus mirabilis) | MIC (Pseudomonas aeruginosa [12])
2 µg/mL: MIC90 (Serratia marcescens [6]) | MIC50 (Burkholderia sp.) | MIC50 [7] | MIC (Pseudomonas aeruginosa [10]) | MIC (Pseudomonas aeruginosa [15]) | MIC (Pseudomonas aeruginosa [17])
1 µg/mL: MIC50 (Providencia stuartii) | MIC50 (Providencia rettgeri [1]) | MIC50 (Klebsiella oxytoca [4]) | MIC50 (Serratia marcescens [6]) | MIC (Pseudomonas aeruginosa [18])
32 µg/mL: MIC50 (Escherichia coli [3]) | MIC50 (Acinetobacter sp.)
8 µg/mL: MIC90 (Klebsiella oxytoca [4]) | MIC90 (Burkholderia sp.)
4 µg/mL: MIC (Pseudomonas aeruginosa [9])
16 µg/mL: MIC50 (Enterobacter cloacae [2]) | MIC90 [7] | MIC50 (Pseudomonas aeruginosa [8]) | MIC (Pseudomonas aeruginosa [16])
0.5 µg/mL: MIC (Pseudomonas aeruginosa [11]) | MIC (Pseudomonas aeruginosa [13]) | MIC (Pseudomonas aeruginosa [14])
≤ 0.06 µg/mL: MIC (Proteus vulgaris) | MIC50 (Proteus vulgaris) | MIC (Proteus penneri) | MIC50 (Proteus penneri) | MIC (Proteus mirabilis) | MIC50 (Proteus mirabilis)

O=C(O)c1cn(C2CC2)c2cc(N3CCNCC3)c(F)cc2c1=O [CIPROFLOXACIN]
3 passages: Activity (Pseudomonas aeruginosa [22])
1 µg/mL: MIC (Pseudomonas aeruginosa [12])
≤ 0.06 µg/mL: MIC (Pseudomonas aeruginosa [11]) | MIC (Pseudomonas aeruginosa [13]) | MIC (Pseudomonas aeruginosa [14])
12 passages: Activity (Acinetobacter junii)
inactive: Activity (Acinetobacter baumannii [19]) | Activity (Klebsiella pneumoniae [20]) | Activity [23]
2 passages: Activity (Pseudomonas aeruginosa [21])

C[C@@H](O)[C@H]1C(=O)N2C(C(=O)O)=C(SCCNC=N)C[C@H]12 [IMIPENEM ANHYDROUS]
8 µg/mL: MIC90 (Proteus vulgaris) | MIC90 (Proteus penneri) | MIC90 (Proteus mirabilis) | MIC90 (Serratia marcescens [6])
4 passages: Activity (Pseudomonas aeruginosa [21])
2 µg/mL: MIC50 (Klebsiella aerogenes) | MIC90 (Citrobacter freundii) | MIC50 (Enterobacter cloacae [2]) | MIC50 (Serratia marcescens [6]) | MIC (Pseudomonas aeruginosa [31]) | MIC (Pseudomonas aeruginosa [32]) | MIC (Pseudomonas aeruginosa [11]) | MIC (Pseudomonas aeruginosa [14]) | MIC (Pseudomonas aeruginosa [18])
3 passages: Activity (Enterobacter cloacae [47])
inactive: Activity (Pseudomonas aeruginosa [22]) | Activity (Pseudomonas aeruginosa [49]) | Activity [23]
1 µg/mL: MIC50 (Citrobacter freundii) | MIC90 (Klebsiella oxytoca [4]) | MIC50 (Klebsiella pneumoniae [5]) | MIC (Klebsiella pneumoniae [29]) | MIC (Enterobacter cloacae [43]) | MIC (Escherichia coli [44]) | MIC (Pseudomonas aeruginosa [9]) | MIC (Pseudomonas aeruginosa [13]) | MIC (Pseudomonas aeruginosa [15]) | MIC (Pseudomonas aeruginosa [16]) | MIC (Pseudomonas aeruginosa [17]) | MIC (Serratia marcescens [50]) | MIC (Pseudomonas aeruginosa [52])
0.25 µg/mL: MIC50 (Escherichia coli [3]) | MIC50 (Klebsiella oxytoca [4]) | MIC50 (Acinetobacter sp.) | MIC (Escherichia coli [24]) | MIC (Escherichia coli [28])
9 passages: Activity (Enterobacter cloacae [48])
32 µg/mL: MIC90 (Acinetobacter sp.) | MIC50 (Burkholderia sp.) | MIC (Escherichia coli [25]) | MIC (Pseudomonas aeruginosa [10])
17 passages: Activity (Acinetobacter junii)
0.5 µg/mL: MIC90 (Escherichia coli [3]) | MIC (Escherichia coli [26]) | MIC (Klebsiella pneumoniae [27]) | MIC (Klebsiella oxytoca [30])
2 passages: Activity (Klebsiella pneumoniae [20])
16 µg/mL: MIC90 (Klebsiella aerogenes) | MIC90 (Providencia stuartii) | MIC90 (Providencia rettgeri [1]) | MIC90 (Klebsiella pneumoniae [5]) | MIC (Acinetobacter baumannii [37])
4 µg/mL: MIC50 (Providencia stuartii) | MIC50 (Proteus vulgaris) | MIC50 (Providencia rettgeri [1]) | MIC90 (Enterobacter cloacae [2]) | MIC50 (Proteus penneri) | MIC50 (Proteus mirabilis) | MIC50 (Pseudomonas aeruginosa [8]) | MIC (Pseudomonas aeruginosa [12]) | MIC (Pseudomonas aeruginosa [53])
1 passages: Activity (Acinetobacter baumannii [19])
> 32 µg/mL: MIC90 (Burkholderia sp.) | MIC [7] | MIC50 [7] | MIC90 [7] | MIC90 (Pseudomonas aeruginosa [8]) | MIC (Serratia marcescens [33]) | MIC (Escherichia coli [34]) | MIC (Klebsiella pneumoniae [35]) | MIC (Klebsiella pneumoniae [36]) | MIC (Pseudomonas aeruginosa [38]) | MIC (Pseudomonas aeruginosa [39]) | MIC (Pseudomonas aeruginosa [40]) | MIC (Providencia rettgeri [41]) | MIC [42] | MIC (Acinetobacter baumannii [45]) | MIC (Acinetobacter baumannii [46]) | MIC (Acinetobacter baumannii [51])
